PubChem BioAssay (NCI)
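Five concentrations, 48 hours, 96-well plates. The concentration for 50% growth inhibition is given as GI50. Definition used: TGI = concentration required for complete inhibition of growth.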

Key:
Assay in all cases: inhibition of tumour cell growth, NCI panel, 48 h
HL-60(TB) leukemia = tested on: HL-60(TB) leukemia
M14 melanoma = tested on: M14 melanoma
NCI-H522 lung = tested on: NCI-H522 lung
SK-MEL-5 melanoma = tested on: SK-MEL-5 melanoma
A498 renal = tested on: A498 renal
SW-620 colon = tested on: SW-620 colon
HOP-62 NSCLC = tested on: HOP-62 NSCLC
OVCAR-4 ovarian = tested on: OVCAR-4 ovarian
UO-31 renal = tested on: UO-31 renal
SR leukemia = tested on: SR leukemia

| Compound | TGI (HL-60(TB) leukemia) | TGI (M14 melanoma) | TGI (NCI-H522 lung) | TGI (SK-MEL-5 melanoma) | TGI (A498 renal) | TGI (SW-620 colon) | TGI (HOP-62 NSCLC) | TGI (OVCAR-4 ovarian) | TGI (UO-31 renal) | TGI (SR leukemia) | GI50 (M14 melanoma) | GI50 (NCI-H522 lung) | GI50 (SK-MEL-5 melanoma) | GI50 (A498 renal) | GI50 (SW-620 colon) | GI50 (HOP-62 NSCLC) | GI50 (OVCAR-4 ovarian) | GI50 (UO-31 renal) |
| --- | --- | --- | --- | --- | --- | --- | --- | --- | --- | --- | --- | --- | --- | --- | --- | --- | --- | --- |
| C=C1OC(c2ccccc2NC)=NC12CCCCC2 | > 100 µM | > 100 µM | > 100 µM | > 100 µM | > 100 µM | > 100 µM | > 100 µM | > 100 µM | > 100 µM | – | – | – | – | – | – | – | – | – |
| CN(C)c1ccc(/C=C(\NC(=O)c2ccccc2)c2nn(C)c(=O)o2)cc1 | > 100 µM | > 100 µM | 47 µM | 93.5 µM | > 100 µM | > 100 µM | 38.1 µM | 97.7 µM | > 100 µM | – | – | – | – | – | – | – | – | – |
| Cc1cc(S(=O)(=O)/N=C(/C(=C=[N-])C#N)[n+]2ccc(N(C)C)cc2)c(SCC(=O)O)cc1Cl | > 100 µM | > 100 µM | > 100 µM | > 100 µM | > 100 µM | – | > 100 µM | > 100 µM | > 100 µM | – | – | – | – | – | – | – | – | – |
| CN(C)CCNC(=O)c1cc(Cl)cc2ccc(-c3ccccc3)nc12 | 4.88 µM | – | 16 µM | 3.82 µM | 15.8 µM | 13.4 µM | 10.3 µM | 13.7 µM | 4.76 µM | – | – | – | – | – | – | – | – | – |
| O=C1C=CC=C/C1=C1\N=C(c2ccccc2OCC(=O)c2ccccc2)SS1 | > 100 µM | > 100 µM | – | – | > 100 µM | > 100 µM | > 100 µM | > 100 µM | > 100 µM | – | – | – | – | – | – | – | – | – |
| OCCOCn1nncc1Cn1ncc2c(SCc3ccccc3)ncnc21 | 53.5 µM | > 100 µM | > 100 µM | > 100 µM | > 100 µM | > 100 µM | > 100 µM | > 100 µM | > 100 µM | – | – | – | – | – | – | – | – | – |
| COc1ccccc1C1Nn2c(nc3ccccc3c2=O)N1c1ccc(C)cc1 (configuration not stated) | 49.1 µM | 26.4 µM | 28.5 µM | 22.5 µM | – | 18.2 µM | 20.2 µM | 11.9 µM | 21.2 µM | 6.43 µM | – | – | – | – | – | – | – | – |
| O=C1NC2CCCCC2N=C1CC(=O)c1ccc(Br)cc1 (configuration not stated) | > 100 µM | > 100 µM | > 100 µM | > 100 µM | > 100 µM | > 100 µM | > 100 µM | – | > 100 µM | > 100 µM | – | – | – | – | – | – | – | – |
| Cc1cc(C)nc(NS(=O)(=O)c2ccc(Nc3c4ccccc4nc4c(C(=O)N5CCN(CCOS(C)(=O)=O)CC5)cccc34)cc2)n1 | > 100 µM | > 100 µM | – | > 100 µM | > 100 µM | – | > 100 µM | > 100 µM | > 100 µM | – | – | – | – | – | – | – | – | – |
| NC(=O)c1csc(C2(O)COC(CO)C2O)n1 (configuration not stated) | – | > 100 µM | > 100 µM | > 100 µM | > 100 µM | > 100 µM | > 100 µM | > 100 µM | > 100 µM | > 100 µM | – | – | – | – | – | – | – | – |
| O=C(OCCN=c1c2ccccc2ccc2ccccc12)c1ccccc1 | > 100 µM | > 100 µM | – | > 100 µM | – | > 100 µM | > 100 µM | > 100 µM | > 100 µM | > 100 µM | – | – | – | – | – | – | – | – |
| COc1ccc(OC2OC(CO)C(OCc3ccccc3)C(OCc3ccccc3)C2OCc2ccccc2)cc1 (configuration not stated) | > 100 µM | > 100 µM | > 100 µM | > 100 µM | > 100 µM | > 100 µM | > 100 µM | – | > 100 µM | > 100 µM | – | – | – | – | – | – | – | – |
| O=c1cc(-c2ccncc2)[nH]c2cc3c(cc12)OCO3 | – | > 100 µM | – | > 100 µM | > 100 µM | > 100 µM | > 100 µM | > 100 µM | > 100 µM | – | – | – | – | – | – | – | – | – |
| O=C(CCc1cc(O)cc(O)c1)NCCCNC(=O)CCc1cc(O)cc(O)c1 | – | > 100 µM | > 100 µM | > 100 µM | > 100 µM | > 100 µM | > 100 µM | > 100 µM | > 100 µM | > 100 µM | – | – | – | – | – | – | – | – |
| CO[C@H]1SC[C@H](OC(C)=O)[C@H](OC(C)=O)[C@H]1OC(C)=O | > 100 µM | > 100 µM | > 100 µM | > 100 µM | – | > 100 µM | > 100 µM | > 100 µM | > 100 µM | > 100 µM | – | – | – | – | – | – | – | – |
| Cc1ccc2c(c1)-c1c(C#N)c(N)nc(-c3ccc(Cl)cc3)c1CCS2(=O)=O | – | > 100 µM | > 23.1 µM | > 68 µM | > 60.5 µM | > 100 µM | > 100 µM | > 100 µM | > 100 µM | 6.18 µM | – | – | – | – | – | – | – | – |
| O=C(O)c1cccc2cccc(-c3cccc4cccc(C(=O)O)c34)c12 | > 100 µM | > 100 µM | > 100 µM | > 100 µM | > 100 µM | > 100 µM | > 100 µM | > 100 µM | > 100 µM | – | – | – | – | – | – | – | – | – |
| O=c1c(Cc2ccc(Cl)cc2)nnc2sc(-c3ccc(-c4ccc(F)c(Cl)c4)o3)nn12 | > 100 µM | > 100 µM | > 100 µM | > 100 µM | > 100 µM | > 100 µM | > 100 µM | > 100 µM | > 100 µM | – | – | – | – | – | – | – | – | – |
| CC[C@H](Nc1nc(C)nc(N)c1C#N)c1nc2cccc(NCc3ccc(C(=O)NO)cc3)c2c(=O)n1-c1ccccc1 | – | 5.85 µM | 3.65 µM | 3.47 µM | 2.93 µM | 4.47 µM | 3.09 µM | 14.6 µM | 2.47 µM | – | 2280 nM | 1540 nM | 1840 nM | 1440 nM | 1740 nM | 1490 nM | 2.74 µM | 1210 nM |
| N#C/C(C(=O)Nc1ccc(Cl)cc1)=C(/N)N1CCCC1 | > 100 µM | > 100 µM | – | > 100 µM | > 100 µM | > 100 µM | > 100 µM | – | > 100 µM | > 100 µM | – | – | – | – | – | – | – | – |
| CCc1c(CNc2ccc(C(=O)NC(CC(=O)O)C(=O)O)cc2)ccc2nc(N)nc(N)c12 (configuration not stated) | – | > 1000 µM | > 1000 µM | > 1000 µM | – | > 1000 µM | > 1000 µM | > 1000 µM | > 1000 µM | > 1000 µM | – | 1090 nM | – | – | – | – | 869 µM | 212 nM |
| C1=C2C3=[N+](CCCCC3)CC2Cc2ccsc21 (configuration not stated) | > 100 µM | > 100 µM | > 100 µM | > 100 µM | > 100 µM | > 100 µM | > 100 µM | > 100 µM | > 100 µM | – | – | – | – | – | – | – | – | – |
